Where two headings read alike, the source gives them in different places.
Columns and labels:
YAP1 = assay: Western blotting; format: cell-based; conditions: for YAP1 levels: H929 and MM.1S cells
From the text: MM.1S, KMS20 and H929 cells are counted, diluted and plated. Cells are then […] with DMSO or different concentration of a compound of the present application for 6 hrs, 24 hrs or 48 hrs. MM cells are then collected and centrifuged at RT and the pellets are re-suspended in lysis buffer. Cell lysates are subjected to sodium dodecyl sulfate-polyacrylamide gel electrophoresis SDS-PAGE, transferred to nitrocellulose membranes, and immunoblotted with different antibodies.
MM.1S, KMS20 and H929 cells were counted, diluted and plated in six-well plates to a final concentration of 500,000 cells/well. Cells were then […] with DMSO or different concentration of a compound of the present application for 6 hrs, 24 hrs or 48 hrs. MM cells were then collected and centrifuged for 5 min, 1300 rpm at RT. The pellets were re-suspended in lysis buffer Laemli 1× (Laemli 5×: SDS 10%, DTT 500 mM, Tris-HCl pH6.8 0.4M, BromoFenol Blue, Glycerol 50%). Cell lysates were subjected to sodium dodecyl sulfate-polyacrylamide gel electrophoresis SDS-PAGE, transferred to nitrocellulose membranes, and immunoblotted with different antibodies: YAP1 (#4912), p-YAP1 (S127) (#13008), LATS1 (#9153), p-LATS1 (Thr1079) (#8654), MOB1 (#3863), p-MOB1 (Thr12) (#8843), p-MST1/p-MST2 (Thr183/Thr180) (#3681), p21 (#2947), PARP (#9532), ERK, STAT, and GAPDH (#5174) from Cell Signaling, Beverly, Mass., United States; STK4 (ab57836) (from Abcam, Cambridge, Mass., United States); PUMA (sc-28226), BAX (sc-20067), from Santa Cruz, Dallas, Tex., United States; β-actin from Sigma-Aldrich (St. Louis, Mo., United States). All antibodies were diluted 1:500, except for β-actin antibody (1:50,000 dilution). In FIG. 8, H929 cells were treated with Compound I-9 or DMSO at 1 μM concentration for 24 hours. Lysates were then obtained and immunoblot was performed using antibodies against PARP, YAP1, PUMA, BAX. p21, and GAPDH.
In FIG. 10A, H929 and MM.1S cells were treated with Compound I-1 or DMSO at 1 μM and 10 μM concentrations for 16 hours. Lysates were then obtained and immunoblot was performed using antibodies against YAP1 and GAPDH.
In FIG. 12, H929 and MM. 1S cells were treated with Compound I-9, Compound I-12, or DMSO at 3 μM and 10 μM concentrations for 72 hours. Lysates were then obtained and immunoblot was performed using antibodies against YAP1 and Actin as loading control.
FIG. 13 show a Western blot of H929 and MM.1S cells treated with Compound I-13, Compound I-28, Compound I-9, KIN001-305, BMS536924, or DMSO at 1 μM concentration for 16 hours. Lysates were then obtained and immunoblot was performed using antibodies against YAP1, Actin, and pMOB1.

JAK2 domain2 = JAK2 domain2 (Homo sapiens (Human), UniProt O60674); assay: KiNativ assay; format: binding; conditions: H929 live cell
JAK2 domain2, sequence (O60674 whole entry, the tested form may be a part): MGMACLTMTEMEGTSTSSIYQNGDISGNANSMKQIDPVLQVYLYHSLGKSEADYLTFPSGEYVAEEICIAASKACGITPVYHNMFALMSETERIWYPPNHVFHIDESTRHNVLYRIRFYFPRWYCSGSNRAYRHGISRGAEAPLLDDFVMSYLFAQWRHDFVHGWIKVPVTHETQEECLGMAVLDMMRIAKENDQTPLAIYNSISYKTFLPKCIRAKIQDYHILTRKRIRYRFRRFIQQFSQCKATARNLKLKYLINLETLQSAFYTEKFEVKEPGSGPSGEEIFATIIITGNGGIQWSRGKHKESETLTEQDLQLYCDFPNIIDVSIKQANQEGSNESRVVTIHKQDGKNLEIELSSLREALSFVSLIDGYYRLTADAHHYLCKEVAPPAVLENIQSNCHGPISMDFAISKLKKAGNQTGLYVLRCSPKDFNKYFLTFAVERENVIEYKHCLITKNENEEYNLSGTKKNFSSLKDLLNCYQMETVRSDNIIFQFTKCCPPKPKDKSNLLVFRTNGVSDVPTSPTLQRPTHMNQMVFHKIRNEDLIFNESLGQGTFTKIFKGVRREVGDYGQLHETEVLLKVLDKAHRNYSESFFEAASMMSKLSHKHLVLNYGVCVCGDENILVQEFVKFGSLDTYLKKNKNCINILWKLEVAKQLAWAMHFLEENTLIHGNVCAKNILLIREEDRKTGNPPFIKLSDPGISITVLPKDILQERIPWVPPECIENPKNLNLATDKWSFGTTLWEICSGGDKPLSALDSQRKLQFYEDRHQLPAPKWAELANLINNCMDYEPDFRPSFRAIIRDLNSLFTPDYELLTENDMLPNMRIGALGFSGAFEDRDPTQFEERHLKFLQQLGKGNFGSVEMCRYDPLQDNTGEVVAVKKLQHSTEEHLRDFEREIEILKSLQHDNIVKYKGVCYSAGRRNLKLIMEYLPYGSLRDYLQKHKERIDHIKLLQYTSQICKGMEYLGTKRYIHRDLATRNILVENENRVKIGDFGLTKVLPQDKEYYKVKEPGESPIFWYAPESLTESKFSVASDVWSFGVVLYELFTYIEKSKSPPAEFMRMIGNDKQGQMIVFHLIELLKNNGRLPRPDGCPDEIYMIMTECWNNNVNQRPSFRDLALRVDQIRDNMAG
In short: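 In duplicate, compounds at 10 μM were screened against kinases in H929 live cells using KiNativ, with MS as the detection method for IC50.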

MM.1S cells = assay: MTT cell growth assay with stromal cell supernatant; format: cell-based, human; conditions: 72 hours; for growth inhibitory effect of Lenalidomide/Pomalidomide in combination: in the presence of stromal cell supernatant
Method: FIG. 29 is a graph showing cell growth of MM.1S cells treated for 72 hours with Compound I-50 or I-51 alone or in combination with stromal cell supernatant in an MTT assay in triplicate.
FIG. 30 is a graph showing cell growth of MM.1S cells treated for 72 hours with Lenalidomide/Pomalidomide in the presence of stromal cell supernatant alone or in combination with Compound I-50 in an MTT assay in triplicate.
FIG. 31 is a graph showing cell growth of MM.1S cells treated for 72 hours with Lenalidomide/Pomalidomide in the presence of stromal cell supernatant alone or in combination with Compound I-51 in an MTT assay in triplicate.
MM. 1S, KMS20, H929 MM cells, RPMI/8226, OPM-2 and U266 were counted and diluted to a final concentration of 400,000 cells/mL. The cell were plated in 96-well plates and mixed with an equal volume of culture media containing DMSO or increasing concentration of a compound of the present application diluted in DMSO (the final DMSO concentration is equal between all tested samples), using a STARlet Robot (Hamiltonrobotics, Reno, Nev., United States). Cells with increasing concentration of compound of the present application and DMSO were […] at different time points (24 hrs to 72 hrs). Viability was assessed by MTT or Cell Titer 96® AQueous One Solution cell proliferation assay (Promega). Specifically, for the MTT assay, the 3-[4,5 dimethylthiazol-2-yl]-2,5 diphenyltetrazolium bromide-MTT (Sigma-Aldrich, St. Louis, Mo., Unites States) colorimetric survival assay was used. At the various time points (24-72 hrs), 10 μL of 5 mg/mL MTT were added to cells. After 4 hrs incubation at 37° C., medium was discarded and 100 μL MTT stop solution (DMSO or Isopropanol with 1 N HCl) was used to dissolve MTT metabolic products. Absorbance was read at 570/630 nm. For the Promega assay, at the various time points, 20 μL of Cell Titer solution is added to the cells. After 4 hrs of incubation at 37° C. absorbance was read at […].

[1] = range class, read-out: % inhibition

Nc1ncc(-c2cc([N+](=O)[O-])ccc2F)cc1-c1ccc2c(c1)CCNC2=O [Compound I-1, 6-(2-amino-5-(2-fluoro-5-nitrophenyl)pyridin-3-yl)-3,4-dihydroisoquinolin-1(2H)-one]
protein levels of YAP1 (YAP1; H929 cells and MM.1S cells, 1 μM and 10 μM, 16 hours): upregulation

Nc1ncc(-c2cccc([N+](=O)[O-])c2F)cc1-c1ccc2c(c1)CCNC2=O [Compound I-9, 6-(2-amino-5-(2-fluoro-3-nitrophenyl)pyridin-3-yl)-3,4-dihydroisoquinolin-1(2H)-one]
YAP1 levels (YAP1; 1 μM, 16 hours): increase
YAP1 levels (YAP1; 3 μM and 10 μM, 72 hours): low
protein levels of YAP1 (YAP1; H929 cells, 1 μM, 24 hours): upregulation

Nc1ncc(-c2cccc3ncsc23)cc1-c1ccc2c(c1)CCNC2=O [Compound I-13, 6-(2-amino-5-(benzo[d]thiazol-7-yl)pyridin-3-yl)-3,4-dihydroisoquinolin-1(2H)-one]
YAP1 levels (YAP1; 1 μM, 16 hours): increase

CN(C1CC1)S(=O)(=O)c1ccc(-c2cnc(N)c(-c3ccc4c(c3)CCNC4=O)c2)c(F)c1 [Compound I-28, 4-(6-amino-5-(1-oxo-1,2,3,4-tetrahydroisoquinolin-6-yl)pyridin-3-yl)-N-cyclopropyl-3-fluoro-N-methylbenzenesulfonamide]
YAP1 levels (YAP1; 1 μM, 16 hours): increase

COc1cc(NS(=O)(=O)C2CC2)ccc1-c1cnc(N)c(-c2ccc3c(c2)CCNC3=O)c1 [Compound I-50, N-(4-(6-amino-5-(1-oxo-1,2,3,4-tetrahydroisoquinolin-6-yl)pyridin-3-yl)-3-methoxyphenyl) cyclopropanesulfonamide]
inhibition at 10 µM (JAK2 domain2; [1]): 0%
inhibition at 10 µM (JAK2 domain2; read-out: inhibition (10 μM)): -71.2%
susceptibility of cells on co-culture with stromal cell supernatant (cell growth, MTT) (MM.1S cells): enhanced the susceptibility
growth inhibitory effect of Lenalidomide/Pomalidomide in combination (MM.1S cells): enhanced the growth inhibitory effect

Nc1ncc(-c2ccc(NS(=O)(=O)C3CC3)cc2F)cc1-c1ccc2c(c1)CCNC2=O [Compound I-51, N-(4-(6-amino-5-(1-oxo-1,2,3,4-tetrahydroisoquinolin-6-yl)pyridin-3-yl)-3-fluorophenyl) cyclopropanesulfonamide]
susceptibility of cells on co-culture with stromal cell supernatant (cell growth, MTT) (MM.1S cells): enhanced the susceptibility
growth inhibitory effect of Lenalidomide/Pomalidomide in combination (MM.1S cells): enhanced the growth inhibitory effect

Nc1ncc(-c2ccc(NS(=O)(=O)C3CC3)cc2OC2CCCCC2)cc1-c1ccc2c(c1)CCNC2=O [Compound I-65, N-(4-(6-amino-5-(1-oxo-1,2,3,4-tetrahydroisoquinolin-6-yl)pyridin-3-yl)-3-(cyclohexyloxy)phenyl) cyclopropanesulfonamide]
inhibition at 10 µM (JAK2 domain2; [1]): 0%
inhibition at 10 µM (JAK2 domain2; read-out: inhibition (10 μM)): 18.8%

Reference: patent publication US10710978B2, “STK4 inhibitors for treatment of hematologic malignancies” (Dana-Farber Cancer Institute, Inc., priority 2015, dated 2020)
